Data on 17 molecules can be found in patent publication EP0542363A2 (GLAXO GROUP LIMITED, priority 1991, dated 1993).

The experiment has as its system human gel filtered platelets (GFP). Briefly: Inhibition of ADP-induced blood platelet aggregation in gel filtered platelets (Born-type optical aggregometer). Type of experiment: cell-based. The note with it: human GFP approx. 300,000 platelets/µl, human fibrinogen 0.5mg/ml, Ca2+ 1mM, Mg2+ 0.5mM, compounds incubated 5 minutes at 37°C, ADP 1 x 10⁻⁵M, concentration producing 50% inhibition of platelet aggregation, read-out: IC₅₀. The protocol:
Inhibition of blood platelet aggregation by compounds of the invention was determined according to the following procedure. Citrated whole blood (1 part 3.8% trisodium citrate : 9 parts blood) was obtained from human volunteers, free of medication for at least 10 days prior to collection. The blood was incubated with 0.1mM aspirin and 0.05µM prostacyclin and then centrifuged at 1000g for 4 minutes (20°C). The supernatant platelet rich plasma (PRP) was further centrifuged at 1300g for 10 minutes (20°C) to sediment the platelets. The supernatant was discarded and the pellet washed with a physiological salt solution (HEPES 5mM, NaHCO₃ 12mM, NaCl 140mM, KH₂PO₄ 0.74mM, D-Glucose 5.6mM, KCl 2.82mM and BSA 20g/l, pH 7.4) to remove residual plasma. After washing, the pellet was resuspended in physiological salt solution and then applied to a sepharose CL-2B column, pre-equilibrated with physiological salt solution at room temperature. The platelets (GFP) eluted within the void volume and were diluted to approximately 300,000 platelets/µl in buffer. Purified human fibrinogen (Knight L.C. et al, 1981 Thromb. Haemostasis, 46(3), 593-596) was added to a final concentration of 0.5mg/ml together with Ca2+ and Mg2+ at 1mM and 0.5mM respectively. […] The potency of the compounds may be expressed as an IC₅₀ value defined as the concentration of compound required to produce 50% inhibition of platelet aggregation.

Where a name gives a salt, the structure may show the parent alone. Read-outs that look alike come from different tables or passages of the source.

For the molecule `N=C(N)c1ccc(N2CCN(C3CCN(CC(=O)O)CC3)CC2)cn1` [Example 19, trifluoroacetate salt], the IC50 (5 min) came out at 76 nM. Still for that read-out and setting: next, `NC(=NO)c1ccc(N2CCN(C3CCN(CC(=O)O)CC3)CC2)cc1` [Example 17, 4-[4-[4-[Amino(hydroxyimino)methyl]phenyl]-1-piperazinyl]-1-piperidineacetic acid trifluoroacetate]: 5660 nM. In the case of `N=C(N)c1ccc(N2CCN(C3CC[N+](CC(=O)O)(Cc4ccccc4)CC3)CC2)cc1` (stereo not drawn) [Example 29, cis-4-[4-[4-(Aminoiminomethyl)phenyl]-1-piperazinyl]-1-(2-hydroxy-2-oxoethyl)-1-(phenylmethyl)piperidinium trifluoroacetate salt], the IC50 (trifluoroacetate salt) was 354 nM. With `N=C(N)c1ccc(N2CCN(C3CC[N+](CC(=O)O)(Cc4ccccc4)CC3)CC2)cc1` (stereo not drawn) [Example 28, trans-4-[4-[4-(Aminoiminomethyl)phenyl]-1-piperazinyl]-1-(2-hydroxy-2-oxoethyl)-1-(phenylmethyl)piperidinium trifluoroacetate salt], for the setting “trifluoroacetate salt”, the IC50 stood at 38 nM. As to `N=C(N)c1ccc(N2CCN(C3CCN(CC(=O)O)CC3)CC2)nc1` [Example 41, trifluoroacetate salt], the IC50 (5 min) was found to be 30 nM. As for `C[N@+]1(CC(=O)O)CC[C@H](C2CCN(c3ccc(C(=N)N)cc3)CC2)CC1` [Example 21, trans-4-[1-[4-(Aminoiminomethyl)phenyl]-4-piperidinyl]-1-(2-hydroxy-2-oxoethyl)-1-methylpiperidinium trifluoroacetate salt], the IC50 (5 min) is 41 nM. The same measure, in the same setting: to `N=C(N)c1ccc(N2CCN(C3CCN(CC(=O)O)CC3)CC2)c(Br)c1` [Example 24, trifluoroacetate salt] belongs 342 nM; to `CCOC(=O)CN1CCC(N2CCN(c3ccc(C(=N)N)cc3)CC2)CC1` [Example 23, trifluoroacetate salt], 16200 nM. Still for that read-out and setting: to `C[N@+]1(CC(=O)O)CC[C@H](N2CCN(c3ccc(C(=N)N)cc3)CC2)CC1` [Example 16a, trans-4-[4-[4-(Aminoiminomethyl)phenyl]-1-piperazinyl]-1-(2-hydroxy-2-oxoethyl)-1-methylpiperidinium trifluoroacetate salt] belongs 44 nM; to `N=C(NCC(F)(F)F)c1ccc(N2CCN(C3CCN(CC(=O)O)CC3)CC2)cc1` [Example 18, 4-[4-[4-[Imino[(2,2,2-trifluoroethyl)amino]methyl]phenyl]-1-piperazinyl]-1-piperidineacetic acid trifluoroacetate salt], 316 nM; to `CC(C(=O)O)N1CCC(N2CCN(c3ccc(C(=N)N)cc3)CC2)CC1` (centres unmarked) [Example 26], 177 nM. Same read-out and setting: next, `COC(=O)NC(=N)c1ccc(N2CCN(C3CCN(CC(=O)O)CC3)CC2)cc1` [Example 34, 4-[4-[4-[Imino[(methoxycarbonyl)amino]methyl]phenyl]-1-piperazinyl]-1-piperidineacetic acid trifluoroacetate salt]: 1600 nM. Take `Cc1cc(C(=N)N)ccc1N1CCN(C2CCN(CC(=O)O)CC2)CC1` [Example 25, trifluoroacetate salt]: where the note is “5 min”, the IC50 was 569 nM. Take `CC1CN(c2ccc(C(=N)N)cc2)CCN1C1CCN(CC(=O)O)CC1` (centres unmarked) [Example 20, trifluoroacetate salt]: the IC50 (5 min) worked out at 71 nM. On the same count and under the same terms, to `C[C@@H]1CN(CC(=O)O)CC[C@@H]1N1CCN(c2ccc(C(=N)N)cc2)CC1` (relative stereo) [Example 30, cis-4-[4-[4-Aminoiminomethyl)phenyl]-1-piperazinyl]-3-methyl-1-piperidineacetic acid trihydrochloride salt] belongs 23 nM; to `N=C(N)c1ccc(C2CCN(C3CCN(CC(=O)O)CC3)CC2)cc1` [Example 22, trifluoroacetate salt], 71 nM. Take “4-[4-[4-[(Diethylphosphinyl)amino]iminomethyl]phenyI]-1-piperazinyl]-1- piperidineacetic acid trifluoroacetate salt [Example 36]”: the IC50 was determined as 2680 nM.
